Measured values taken from ChEMBL document CHEMBL1131938, “Leucine-phenylalanine dipeptide-based N-mesyloxysuccinimides: synthesis of all four stereoisomers and their assay against serine proteases” (Bioorg Med Chem Lett, 1999).

Columns and labels:
[1] = target: T1, Neutrophil elastase (Homo sapiens) (UniProt P08246); assay: Inhibitory activity against human neutrophil elastase after 30 min incubation; design: concentration or dose not given beside the values
T1 sequence (whole entry): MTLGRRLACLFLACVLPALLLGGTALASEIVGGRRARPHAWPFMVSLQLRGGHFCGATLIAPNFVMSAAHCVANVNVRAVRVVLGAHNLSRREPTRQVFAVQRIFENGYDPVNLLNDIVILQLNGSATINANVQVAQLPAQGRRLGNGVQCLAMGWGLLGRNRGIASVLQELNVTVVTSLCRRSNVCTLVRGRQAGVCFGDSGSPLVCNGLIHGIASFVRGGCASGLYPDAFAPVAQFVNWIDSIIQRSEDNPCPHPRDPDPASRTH

[2] = target: Chymotrypsinogen A (Bos taurus) (UniProt P00766); assay: Inhibitory activity against Chymotrypsinogen enzyme was determined
[3] = target: Chymotrypsinogen A (Bos taurus) (UniProt P00766); assay: Inhibitory activity against Chymotrypsinogen was determined

| Compound | inhibition [1] [%] | k obs / 1 [2] [M⁻¹ s⁻¹] | k obs / 1 [3] [M⁻¹ s⁻¹] |
| --- | --- | --- | --- |
| CC(=O)N[C@]1(Cc2ccccc2)CC(=O)N(OS(C)(=O)=O)C1=O | 56 | 217 |  |
| CC(=O)N[C@@H](CC(C)C)C(=O)N[C@]1(Cc2ccccc2)CC(=O)N(OS(C)(=O)=O)C1=O | 63 | 170 |  |
| CC(=O)N[C@@H](CC(C)C)C(=O)N[C@@]1(Cc2ccccc2)CC(=O)N(OS(C)(=O)=O)C1=O | 24 |  | 28 |
| CCCCOC(=O)N[C@@H](CC(C)C)C(=O)N[C@]1(Cc2ccccc2)CC(=O)N(OS(C)(=O)=O)C1=O | 48 | 180 |  |

More lines, now with the values ahead:

| inhibition [1] [%] | k obs / 1 [2] [M⁻¹ s⁻¹] | k obs / 1 [3] [M⁻¹ s⁻¹] | Compound |
| --- | --- | --- | --- |
| 72 | 244 |  | CC(=O)N[C@H](CC(C)C)C(=O)N[C@]1(Cc2ccccc2)CC(=O)N(OS(C)(=O)=O)C1=O |
| 6 | 9 |  | CC(=O)N[C@H](CC(C)C)C(=O)N[C@@]1(Cc2ccccc2)CC(=O)N(OS(C)(=O)=O)C1=O |
